Broadly, the Ki is the dissociation constant of the complex between target and ligand, obtained from inhibition or displacement.

Molecules are shown by their SMILES.

Experiment [1] relates to MDM2 gene expression. As to conditions: AML patients, peripheral blasts, after 10 days of treatment; cited from earlier work.
Experiment [2] deals with HepG2 cells. Description: Cell uptake of [^18F]1 in HepG2 cells after 21 h pretreatment. Type of experiment: cell-based, human. As to conditions: HepG2 cells. As for the experimental part:
(§1) The ability of [^18F]1 to bind to MDM2 expressing human tumor cells was assessed using two wild-type p53 cell lines, MCF-7 breast adenocarcinoma, and HepG2 hepatocellular carcinoma. These cell lines have significant MDM2 expression levels and have been utilized previously for assessing potential MDM2 inhibitors, including SP-141 [12, 24, 25]. […] Thus, to examine the uptake and specificity of [^18F]1 by MDM2 expressing tumor cell lines, MCF-7 and HepG2 cells were treated with 0, 1, 5, or 10 µM SP-141 for 21 h, and then assessed for [^18F]1 uptake for 1 h.
Cell uptake studies of [^18F]1 were conducted using MCF-7 and HepG2 cell lines. […] Next, the incubation medium was removed, cells were rinsed with cold PBS (3 × 0.5 mL) and lysed using Cell Culture Lysis Reagent (0.25 mL, Promega Corporation, Madison, WI, USA) followed by a rinse with PBS (0.125 mL/well). For each well, the supernatant, PBS washes, and the cell lysate were measured for radioactivity in an automated gamma counter (Wallac Wizard™, Perkin Elmer, Waltham, MA, USA). Subsequently, cell lysates were analyzed for protein concentration using the Bradford assay (Bio-Rad, Hercules, CA, USA). Cell uptake for each well was normalized to its protein content and expressed as % uptake/mg protein. Results are presented as mean ± SD for three wells.

In experiment [3] the test system is MCF-7 cells. In words: Cell uptake of [^18F]1 in MCF-7 cells after 21 h pretreatment. Type of experiment: cell-based, human. The note with it: MCF-7 cells. As for the experimental part: as §1
Cell uptake studies of [^18F]1 were conducted using MCF-7 and HepG2 cell lines. Briefly, cells plated in 24-well plates (200,000/well) were treated with varying concentrations of SP-141 (1, 5, or 10 µM) or vehicle for 21 h and incubated with a fresh medium containing [^18F]1 (~18.5 kBq in 0.5 mL medium) for 1 h. Next, the incubation medium was removed, cells were rinsed with cold PBS (3 × 0.5 mL) and lysed using Cell Culture Lysis Reagent (0.25 mL, Promega Corporation, Madison, WI, USA) followed by a rinse with PBS (0.125 mL/well). For each well, the supernatant, PBS washes, and the cell lysate were measured for radioactivity in an automated gamma counter (Wallac Wizard™, Perkin Elmer, Waltham, MA, USA). Subsequently, cell lysates were analyzed for protein concentration using the Bradford assay (Bio-Rad, Hercules, CA, USA). Cell uptake for each well was normalized to its protein content and expressed as % uptake/mg protein. Results are presented as mean ± SD for three wells.

The subject of experiment [4] is Hep3B cells. Description: [^18F]1 uptake with or without co-incubated 100 µM SP-141, Hep3B. Type of experiment: cell-based, human. The note with it: Hep3B (p53 null) cells, 100 µM SP-141 co-incubation, 15-120 min. How it is done:
(§2) Because MDM2 is a transcriptional target of p53, stabilization of p53 levels after MDM2 inhibition with SP-141 is expected to cause a temporary increase in MDM2 protein expression via the autoregulatory loop. Thus, we hypothesized that treatment of tumor cells with high concentrations of SP-141 for shorter periods (e.g., <4 h) might induce MDM2 expression as a consequence of p53 activation, whereas low concentrations of SP-141 (≤1 µM) and longer incubation times (≥20 h) appear to promote MDM2 degradation in vitro. To investigate this, MCF-7 and HepG2 cells were incubated with or without 100 µM SP-141 for 15–120 min, and uptake was measured as a percentage input dose for each time point. Hep3B, a p53 null cell line, was used as a negative control. […]
(§3) For these studies, MCF-7 (WT-p53), HepG2 (WT-p53), and Hep3B (p53 null) cells were plated in 24-well plates (20,000/well) and incubated with [^18F]1 (~18.5 kBq in 0.5 mL) with or without 100 µM SP-141 for 15–120 min under standard cell culture conditions. […] The radioactivity in supernatants, wash fractions, and cell lysates was counted for each well using the gamma counter (Wallac Wizard). Cell uptake was calculated as the percentage of the input dose for the two treatment conditions (with/without 100 µM SP-141).

For experiment [5], the system named is MCF-7 cells. More on the design: method as in PMID 25271708, PMID 31832522. As to conditions: 0.5–1.0 µM for 24 h; cited from earlier work.
For experiment [6], the target named is MDM2. As to conditions: read-out: Binding affinity determined by SPR analysis; cited from earlier work. (In general: In SPR one partner is held on a chip, and binding of the other changes the refractive index at the surface.)
Experiment [7] concerns HepG2 xenograft. More on the design: method as in PMID 25271708, PMID 31832522, PMID 29354330. As to conditions: 40 mg/kg i.p., 5 days a week, cited from earlier work.
Experiment [8] concerns MCF-7 cells. Description: [^18F]1 uptake with or without co-incubated 100 µM SP-141, MCF-7. Format: cell-based, human. The note with it: 100 µM SP-141 co-incubation, 15 min. How it is done:
as §2, §3

In experiment [9] the target is MDM2 protein. Also noted: method as in PMID 25271708. As to conditions: read-out: Binding affinity (Ki); cited from earlier work.
Experiment [10] has as its system HepG2 cells. Description: [^18F]1 uptake with or without co-incubated 100 µM SP-141, HepG2. Type of experiment: cell-based, human. The note with it: 100 µM SP-141 co-incubation, 15 min. As for the experimental part: as §2, §3
Experiment [11] has as its system MCF-7 xenograft. Also noted: method as in PMID 25271708, PMID 31832522, PMID 29354330. The note with it: 40 mg/kg i.p., 5 days a week, cited from earlier work.
Experiment [12] deals with HepG2 cells. Also noted: method as in PMID 25271708, PMID 31832522. The note with it: 0.5–1.0 µM for 24 h; cited from earlier work.

As to `CCOc1cc(C(C)(C)C)ccc1C1=N[C@@](C)(c2ccc(Cl)cc2)[C@@](C)(c2ccc(Cl)cc2)N1C(=O)N1CCN(CCCS(C)(=O)=O)CC1` [RG7112], the “Increase in median MDM2 gene expression levels” value in [1] was 2.8 fold.

As to `COc1ccc(C2=N[C@@H](c3ccc(Cl)cc3)[C@@H](c3ccc(Cl)cc3)N2C(=O)N2CCNC(=O)C2)c(OC(C)C)c1` [Nutlin-3, reference compound], the “Change of [^18F]1 uptake after pretreatment” value in [2] (10 µM Nutlin-3, 21 h) is “significant increases”; in experiment [3] (1 and 5 µM Nutlin-3, 21 h), “significant increases”. Further, the “Inhibitory effect of pretreatment on [^18F]1 uptake” value in experiment [2] (Nutlin-3 1-10 µM for 21 h) and in experiment [3] (Nutlin-3 1-10 µM for 21 h) was “did not show any inhibitory effects” each time.

Take `COc1ccc2[nH]c3c(-c4cccc5ccccc45)nccc3c2c1` [SP-141, 6-Methoxy-1-(naphthalen-1-yl)-9H-pyrido[3,4-b]indole]: the “Effect of SP-141 on [^18F]1 uptake” value in [4] is on record as “no effect”. In addition, the “Effect of SP-141 pretreatment on [^18F]1 uptake” value in experiment [2] (10 µM SP-141 for 21 h) is listed as “no noticeable effects”. For the same molecule, the “Decrease of [^18F]1 uptake compared to vehicle-treated cells” value in [3] (1 µM SP-141 for 21 h) turned out to be 76%. Also, the “Cellular MDM2 levels” value in experiment [5] and in [12] was “decreases cellular MDM2 levels” each time. In addition, in experiment [6], the Kd was 43 nM. Further, the Tumor growth result in experiment [7] (after 20 days) and in experiment [11] (after 42 days) was “inhibited tumor growth significantly” throughout. Also, the “MDM2 levels in tumors” value in [7] and in experiment [11] was “decreased MDM2 levels in tumors” throughout. Besides, the “Increase of [^18F]1 uptake compared to cells incubated with only [^18F]1” value in [8] is 1.2 fold; in [10], 1.4 fold. Besides, the Ki in experiment [9] is 28 ± 6 nM.

Values taken from PMC8070256, “Feasibility of Developing Radiotracers for MDM2: Synthesis and Preliminary Evaluation of an ^18F-Labeled Analogue of the MDM2 Inhibitor SP-141” (Pharmaceuticals, 2021).
